S/N data for eight compounds are collected here from US9341616B2, “Sweet taste receptor chimeric proteins and use thereof” (AJINOMOTO CO., INC., priority 2014, dated 2016).

Each structure is given as a SMILES string. Residues, ends and D or L forms follow the SMILES beside them.

The experiment deals with T1, hT1R2/mT1R3 (UniProt Q8TE23+Q925D8).
T1 construct: expressed in transfected cells; host or cells: HEK293E
T1 sequence (Q8TE23 20-839): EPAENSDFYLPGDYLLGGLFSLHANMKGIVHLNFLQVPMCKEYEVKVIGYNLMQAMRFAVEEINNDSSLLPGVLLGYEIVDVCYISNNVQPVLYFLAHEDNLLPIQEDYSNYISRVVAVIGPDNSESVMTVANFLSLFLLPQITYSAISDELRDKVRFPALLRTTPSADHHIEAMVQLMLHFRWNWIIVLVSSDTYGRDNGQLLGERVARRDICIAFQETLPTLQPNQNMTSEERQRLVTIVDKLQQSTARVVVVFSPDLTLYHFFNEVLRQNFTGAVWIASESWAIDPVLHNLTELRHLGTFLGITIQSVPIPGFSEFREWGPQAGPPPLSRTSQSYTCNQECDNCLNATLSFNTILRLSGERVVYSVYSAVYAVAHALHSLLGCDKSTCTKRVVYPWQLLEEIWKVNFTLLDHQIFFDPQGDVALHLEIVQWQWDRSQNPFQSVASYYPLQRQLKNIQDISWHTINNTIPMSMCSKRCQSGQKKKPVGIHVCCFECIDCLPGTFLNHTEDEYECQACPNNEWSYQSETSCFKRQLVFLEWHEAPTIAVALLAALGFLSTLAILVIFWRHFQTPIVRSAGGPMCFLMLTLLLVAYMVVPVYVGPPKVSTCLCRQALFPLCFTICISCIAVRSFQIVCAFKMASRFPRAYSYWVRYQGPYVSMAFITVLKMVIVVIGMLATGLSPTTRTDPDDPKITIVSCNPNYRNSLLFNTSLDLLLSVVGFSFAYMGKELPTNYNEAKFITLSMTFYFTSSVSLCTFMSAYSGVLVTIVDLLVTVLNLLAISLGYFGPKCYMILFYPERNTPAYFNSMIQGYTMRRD
T1 sequence (Q925D8 21-858): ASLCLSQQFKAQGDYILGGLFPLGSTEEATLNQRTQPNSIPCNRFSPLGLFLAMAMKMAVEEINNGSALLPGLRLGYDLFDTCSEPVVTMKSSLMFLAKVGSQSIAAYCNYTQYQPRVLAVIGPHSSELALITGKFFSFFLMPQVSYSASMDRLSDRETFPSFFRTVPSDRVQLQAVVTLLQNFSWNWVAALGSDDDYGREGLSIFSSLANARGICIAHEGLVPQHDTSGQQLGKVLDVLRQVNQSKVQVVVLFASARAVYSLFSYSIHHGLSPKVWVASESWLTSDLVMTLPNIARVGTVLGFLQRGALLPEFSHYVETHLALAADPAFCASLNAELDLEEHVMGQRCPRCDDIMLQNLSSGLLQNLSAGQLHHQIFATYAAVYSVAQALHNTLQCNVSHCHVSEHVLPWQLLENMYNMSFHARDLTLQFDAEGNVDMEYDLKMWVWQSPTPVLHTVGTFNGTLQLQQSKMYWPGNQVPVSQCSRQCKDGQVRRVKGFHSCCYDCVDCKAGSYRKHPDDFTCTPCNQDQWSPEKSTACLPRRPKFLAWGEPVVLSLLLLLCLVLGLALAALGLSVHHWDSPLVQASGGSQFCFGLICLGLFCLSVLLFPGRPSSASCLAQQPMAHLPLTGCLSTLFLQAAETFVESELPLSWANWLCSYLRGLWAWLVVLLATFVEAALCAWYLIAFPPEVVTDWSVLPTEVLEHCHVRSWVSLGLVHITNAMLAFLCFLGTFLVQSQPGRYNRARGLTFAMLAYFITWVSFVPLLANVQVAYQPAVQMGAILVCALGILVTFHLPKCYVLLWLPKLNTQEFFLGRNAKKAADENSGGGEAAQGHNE
As to the kind of experiment: Intracellular calcium assay (ΔF/F, S/N ratio) in HEK293E cells expressing hT1R2 and mT1R3 with Gα15-trans48LD. The experiment is classed as cell-based, human/mouse. For orientation: Calcium assays in cells follow changes in intracellular calcium, usually with a dye or a luminescent sensor.

[1] abbreviates: Table 3, genes hT2/mT3 (hT1R2, mT1R3).
Setting [2] is: Table 4, genes hT2/mT3 (hT1R2, mT1R3).

Protocol: The HEK293E cells maintained by using the DMEM/Ham's F-12 medium (Nakarai Tesque) containing 10% fetal bovine serum ([sequence]) and 1% Pen Strep (GIBCO) were washed with D-PBS(−) (Nakarai Tesque), and collected from the flask by using 0.25% Trypsin EDTA (GIBCO). The cells were centrifuged (1,200 rpm, 3 minutes), and after the supernatant was removed, suspended in 5% FBS DMEM/Ham's F-12 at a density of 0.75×10^7 cell/ml. This suspension (10 ml) was put into a 150 cm^3 flask (IWAKI), and culture was performed overnight (37° C., 5% CO2). On the next day, the medium was exchanged with Opti-MEM (30 ml, Invitrogen, Life Technologies), a sweet taste receptor gene mixture (Gα15-trans48LD gene, various kinds of T1R2 chimeric genes, and various kinds of T1R3 chimeric genes, 63.8 μg in total) prepared by using Opti-MEM and Lipofectamin 2000 (Invitrogen, Life Technologies) was slowly added to the cell suspension, and incubation was performed (37° C., 5% CO2) for 6 hours to attain gene transfer.
After the gene transfer, the cells were washed with D-PBS(−), then removed from the flask by using 0.25% Trypsin EDTA (GIBCO), and collected. After the cell number was counted, the cells were suspended in the 5% FBS DMEM medium (2.78 mM glucose, GIBCO) at a density of 0.5×10^6 cell/ml. This cell suspension was put into wells of D-Lysine coat 96-well plate (BD bioscience) in such a volume that the cell count is 7.0×10^4 cells/well, and the cells were cultured overnight.
After the culture, all the medium of the 96 wells were discarded. 200 μl of the staining solution for measurement of intracellular calcium ion′ Calcium Assay Kit Express (Molecular Device), diluted 80 times with an assay buffer (20 mM HEPES, 146 mM NaCl, 1 mM MgSO4, 1.39 mM glucose, 1 mM CaC12, 2.5 mM Probenecid, 0.05% bovine serum albumin) was added to each well, and the plate was left standing at 37° C. for 30 minutes and at room temperature for 45 minutes to perform staining. After the staining, 50 μl of a solution of stimulant (sweet taste substance) prepared with the assay buffer was added to each well, and the fluorescence value was measured for 120 seconds after the stimulation by using FDSSμEELL (Hamamatsu Photonics). By measuring the fluorescence value (Ex. 480 nm, Em. 540 nm) before and after the stimulation, the change of the intracellular free calcium ion concentration caused by addition of the stimulant via a sweet taste receptor was quantitatively investigated. The measurement and analysis of the fluorescence value was performed by using the software attached to FDSSμEELL (FDSS7000EX), and ΔF/F value was calculated in accordance with the following equation, and used for the evaluation. ΔF/F=(Maximum fluorescence value after stimulation−Minimum fluorescence value after stimulation)/(Fluorescence value before stimulation)
Furthermore, by using the ΔF/F values obtained when each sweet taste substance was added, the S/N ratio was calculated. Specifically, the S/N value was calculated by using the minimum value of ΔF/F obtained when each substance was added at various concentrations as noise (N) value, and the similarly obtained maximum value of ΔF/F as the signal (S) value, and used as an index for sensitivity of the measurement of the activity of each receptor. That is, a higher S/N value means a higher sensitivity for detection of an interaction of a sweet taste receptor and a test substance, which makes it easier to detect stimulation with a sweet taste substance or sweet taste-regulating substance of a lower concentration.

`CC1=CC(=O)NS(=O)(=O)O1` [Acesulfame K, acesulfame potassium]: the S/N is 2.4 under setting [1] and 2.4 under setting [2].

As to `COC(=O)[C@H](Cc1ccccc1)NC(=O)[C@H](CC(=O)O)NCCCc1ccc(OC)c(O)c1` [Advantame, advantame], the S/N came to 4.6 under setting [1] and 4.6 under setting [2].

Turning to `COC(=O)[C@H](Cc1ccccc1)NC(=O)[C@@H](N)CC(=O)O` [Aspartame, aspartame] (HELM PEPTIDE1{D.F.[CO[*:1]]}$$$$V2.0), the S/N was found to be 2.3 under setting [1] and 2.3 under setting [2].

As for `COC(=O)[C@H](Cc1ccccc1)NC(=O)[C@H](CC(=O)O)NCCC(C)(C)C` [Neotame, neotame], the S/N came to 3.4 under setting [1] and 3.4 under setting [2].

With `C[C@H](NC(=Nc1ccc(C#N)cc1)NCC(=O)O)c1ccccc1` [SC-45647, [3-[(S)-1-phenylethyl]-2-(4-cyanophenyl)guanidino]acetic acid], the S/N runs as follows: under setting [1], 3.9; under setting [2], 3.9.

Regarding `O=C1NS(=O)(=O)c2ccccc21.[Na]` [Saccharin Na, sodium saccharin], the S/N runs as follows: under setting [1], 2.8; under setting [2], 2.8.

Consider `OC[C@H]1O[C@H](O[C@]2(CCl)O[C@H](CCl)[C@@H](O)[C@@H]2O)[C@H](O)[C@@H](O)[C@H]1Cl` [Sucralose, sucralose], for which the S/N under setting [1] is reported as 4.0 and the S/N under setting [2] stood at 4.0.

Regarding `OC[C@H]1O[C@@](CO)(O[C@H]2O[C@H](CO)[C@@H](O)[C@H](O)[C@H]2O)[C@@H](O)[C@@H]1O` [Sucrose, sucrose], the S/N reads like this: under setting [1], 2.4; under setting [2], 2.4.
